The source of these data is US20060239915A1, “Labeled macrophage scavenger receptor antagonists for imaging cardiovascular diseases” (priority 2002, published 2006).

The target in one experiment is T1, MSRA on THP-1 cells (Homo sapiens, UniProt P21757).
T1 construct: Cells became adherent and expressed MSRA; endogenous in cells; host or cells: THP-1 (ECACC), differentiated with PMA
T1 sequence (P21757 1-451): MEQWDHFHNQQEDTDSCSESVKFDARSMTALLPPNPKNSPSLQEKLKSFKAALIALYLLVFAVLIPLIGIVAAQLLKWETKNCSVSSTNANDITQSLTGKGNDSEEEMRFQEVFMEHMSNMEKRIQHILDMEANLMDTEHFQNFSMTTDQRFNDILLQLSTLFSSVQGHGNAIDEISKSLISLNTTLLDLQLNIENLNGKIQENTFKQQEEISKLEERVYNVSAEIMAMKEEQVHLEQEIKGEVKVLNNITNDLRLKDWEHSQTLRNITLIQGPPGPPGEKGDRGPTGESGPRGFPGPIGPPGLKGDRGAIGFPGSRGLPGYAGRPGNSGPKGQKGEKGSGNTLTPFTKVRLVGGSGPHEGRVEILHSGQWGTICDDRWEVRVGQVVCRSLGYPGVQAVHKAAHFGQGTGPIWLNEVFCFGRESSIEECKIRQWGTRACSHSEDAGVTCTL
The experiment in a line: Cell competition assay with 125I-imaging agent 2, THP-1 cells. The conditions noted are these: competition for binding of 125I imaging agent 2, THP-1 cells, n=3. As to the method:
Experiments were carried out on THP-1 cells. THP-1 cells (human monocyte ECACC) are suspension cells and were cultured in RPMI-1640 medium (Sigma, Cat no. R0883) containing penicillin/streptomycin (Sigma, Cat no. P4458), 2 mM glutamine (Sigma, Cat no. G7513) and 10% foetal bovine serum (FBS; Sigma, Cat no. F-7524). Cells were routinely passaged at 2×10^5 cells/ml in 162 cm^2 flasks. For assays with ^125I-acLDL, cells were seeded at 1×10^5 cells/well/ml in 24 well plates 4-6 days prior to assay and 400 ng/ml phorbol myristate acetate (PMA) added to differentiate THP-1 cells. Cells became adherent and expressed MSRA. For assays with ^125I imaging agent 2, THP-1 cells were seeded at 1.5×10^5 cells/well/ml in 24 well plates 4-6 days prior to assay with 400 ng/ml PMA.
(§1) Experiments were carried out in THP-1 and CHO-SRA cells to assess competition for binding of ^125I imaging agent 2 by acLDL, oxLDL and non-radioactive imaging agent 2.
THP-1 cells were cultured as described in Example 13 above.

In experiment [1] the target is T2, human SR-A on CHO-SRA cells (Homo sapiens, UniProt P21757).
T2 construct: expressed in transfected cells; host or cells: CHO (hamster ovary) cells, line CHO-SRA
T2 sequence (P21757 1-451): T1 sequence (P21757 1-451)
The experiment is described as follows: Cell competition assay with 125I-imaging agent 2, CHO-SRA cells. The conditions noted are these: competition for binding of 125I imaging agent 2, CHO-SRA cells, n=3; read-out: Mean IC50 (one site competition). How it is done:
as §1
CHO-SRA cells are adherent hamster ovary cells expressing human SR-A and were cultured in Hams F-12 medium containing penicillin/streptomycin, 2 mM glutamine, HEPES buffer (7 ml per 500 ml media), 3% filter-sterilised lipoprotein-deficient serum (LPDS; Sigma cat. no. S5394), 40 μM compactin/mevastatin (Sigma cat. no. M2537), 250 μM mevalonic acid lactone (Sigma cat. no. M4667), and 3 μg/ml acetylated LDL (AcLDL; Biogenesis, Cat no. 5685-3404). For assays with ^125I-acLDL, cells were seeded at 1×10^5 cells/well/ml in 24 well plates 24 hours prior to assay. For assays with ^125I imaging agent 2, CHO-SRA cells were seeded at 1.5×10^5 cells/well/ml in 24 well plates 24 hours prior to assay.

Like-named read-outs stand apart in the source and are kept apart here.

For orientation: IC50 means the midpoint of a concentration-inhibition curve. `O=C(Nc1ccc(I)cc1)c1cc(Br)ccc1NS(=O)(=O)c1ccc(Cl)cc1` [non-radioactive imaging agent 2]: the half-maximal inhibitory concentration (IC50) came to 0.079 ± 0.02 µM on MSRA on THP-1 cells (read-out: Mean IC50 (two site kinetics, first value)); 14.5 ± 5.8 µM at MSRA on THP-1 cells (read-out: Mean IC50 (two site kinetics, second value)); 30 ± 12 µM in experiment [1].
